The CheMixHub viscosity set

Assay: xn = mol fraction of the nth substance listed

C=COC(C)=O + CCCCO
303.15 K, 101.33 kPa
Conditions | viscosity [mPa·s]
x1 = 0.1008 | 1.622
x1 = 0.1999 | 1.211
x1 = 0.3008 | 0.944
x1 = 0.3993 | 0.768
x1 = 0.5055 | 0.634
x1 = 0.6002 | 0.547
x1 = 0.6998 | 0.482
x1 = 0.7997 | 0.433
x1 = 0.8749 | 0.405

Oc1ccccc1Cl + CCCCOCCO
viscosity [mPa·s], 101 kPa
Conditions | x1 = 0.1256 | x1 = 0.2442 | x1 = 0.3565 | x1 = 0.4628 | x1 = 0.5638 | x1 = 0.6597 | x1 = 0.751 | x1 = 0.8379 | x1 = 0.9208
303.15 K | 3.306 | 4.125 | 4.745 | 5.08 | 5.13 | 4.92 | 4.5 | 3.975 | 3.396
308.15 K | 2.934 | 3.49 | 3.876 | 4.084 | 4.093 | 3.935 | 3.654 | 3.302 | 2.895
313.15 K | 2.604 | 2.992 | 3.267 | 3.404 | 3.405 | 3.298 | 3.106 | 2.847 | 2.563
318.15 K | 2.282 | 2.554 | 2.738 | 2.82 | 2.833 | 2.754 | 2.624 | 2.45 | 2.254

CCCN + CCCCOCCOCCO
298.15 K, 101 kPa
Conditions | viscosity [mPa·s]
x2 = 0.0104 | 0.381
x2 = 0.0212 | 0.404
x2 = 0.0381 | 0.44
x2 = 0.0898 | 0.562
x2 = 0.1063 | 0.602
x2 = 0.129 | 0.668
x2 = 0.164 | 0.78
x2 = 0.1944 | 0.884
x2 = 0.2231 | 1.003
x2 = 0.2623 | 1.178
x2 = 0.3079 | 1.4
x2 = 0.327 | 1.505
x2 = 0.3856 | 1.851
x2 = 0.4114 | 2.011
x2 = 0.4443 | 2.23
x2 = 0.4782 | 2.46
x2 = 0.5424 | 2.9
x2 = 0.5729 | 3.115
x2 = 0.6163 | 3.404
x2 = 0.6419 | 3.571
x2 = 0.6779 | 3.79
x2 = 0.7205 | 4.031
x2 = 0.7508 | 4.193
x2 = 0.7957 | 4.402
x2 = 0.8278 | 4.535
x2 = 0.8577 | 4.647
x2 = 0.8744 | 4.703
x2 = 0.9181 | 4.837
x2 = 0.9513 | 4.925
x2 = 0.9752 | 4.986

CC(C)c1ccccc1 + CCCO
viscosity [mPa·s], 101 kPa
Conditions | 298.15 K | 303.15 K | 308.15 K | 313.15 K | 318.15 K | 323.15 K
x1 = 0.013 | 1.976 | – | 1.523 | – | – | –
x1 = 0.0796 | 1.683 | – | 1.334 | – | – | –
x1 = 0.1684 | 1.406 | – | 1.14 | – | – | –
x1 = 0.2504 | 1.236 | – | 1.011 | – | – | –
x1 = 0.3462 | 1.092 | – | 0.896 | – | – | –
x1 = 0.4697 | 0.956 | – | 0.791 | – | – | –
x1 = 0.5994 | 0.854 | – | 0.712 | – | – | –
x1 = 0.7565 | 0.756 | – | 0.657 | – | – | –
x2 = 0.0996 | – | 0.6838 | 0.6412 | 0.602 | 0.5678 | 0.5436
x2 = 0.1997 | – | 0.6995 | 0.6529 | 0.612 | 0.5746 | 0.54
x2 = 0.2988 | – | 0.7297 | 0.6794 | 0.6333 | 0.592 | 0.5542
x2 = 0.4008 | – | 0.7751 | 0.7176 | 0.6661 | 0.6202 | 0.5777
x2 = 0.5012 | – | 0.8411 | 0.7731 | 0.7142 | 0.6612 | 0.6129
x2 = 0.6002 | – | 0.9284 | 0.847 | 0.7762 | 0.7145 | 0.6596
x2 = 0.7002 | – | 1.046 | 0.9475 | 0.8652 | 0.7897 | 0.7201
x2 = 0.8 | – | 1.205 | 1.086 | 0.982 | 0.8912 | 0.81
x2 = 0.8991 | – | 1.426 | 1.275 | 1.146 | 1.033 | 0.9322

CCCN + CCCO
Conditions | viscosity [mPa·s]
298.15 K, 100 kPa, x2 = 0.0523 | 0.3938
298.15 K, 100 kPa, x2 = 0.1008 | 0.4276
298.15 K, 100 kPa, x2 = 0.2001 | 0.5072
298.15 K, 100 kPa, x2 = 0.2985 | 0.6113
298.15 K, 100 kPa, x2 = 0.3979 | 0.7332
298.15 K, 100 kPa, x2 = 0.5037 | 0.864
298.15 K, 100 kPa, x2 = 0.5989 | 1.002
298.15 K, 100 kPa, x2 = 0.7015 | 1.186
298.15 K, 100 kPa, x2 = 0.7962 | 1.378
298.15 K, 100 kPa, x2 = 0.9032 | 1.671
298.15 K, 100 kPa, x2 = 0.9626 | 1.843
303.15 K, 101.33 kPa, x1 = 0.0903 | 1.559
303.15 K, 101.33 kPa, x1 = 0.1862 | 1.343
303.15 K, 101.33 kPa, x1 = 0.2822 | 1.157
303.15 K, 101.33 kPa, x1 = 0.3807 | 0.9888
303.15 K, 101.33 kPa, x1 = 0.4868 | 0.8381
303.15 K, 101.33 kPa, x1 = 0.5804 | 0.7151
303.15 K, 101.33 kPa, x1 = 0.6878 | 0.596
303.15 K, 101.33 kPa, x1 = 0.7825 | 0.5123
303.15 K, 101.33 kPa, x1 = 0.901 | 0.417
313.15 K, 101.33 kPa, x1 = 0.0903 | 1.255
313.15 K, 101.33 kPa, x1 = 0.1862 | 1.096
313.15 K, 101.33 kPa, x1 = 0.2822 | 0.9516
313.15 K, 101.33 kPa, x1 = 0.3807 | 0.8187
313.15 K, 101.33 kPa, x1 = 0.4868 | 0.6961
313.15 K, 101.33 kPa, x1 = 0.5804 | 0.6034
313.15 K, 101.33 kPa, x1 = 0.6878 | 0.5101
313.15 K, 101.33 kPa, x1 = 0.7825 | 0.4401
313.15 K, 101.33 kPa, x1 = 0.901 | 0.3655
